Article PMC11304236, “A Novel Drug Candidate for Sepsis Targeting Heparanase by Inhibiting Cytokine Storm” (Advanced Science, 2024)

Assays:
HPA [1] = biological target: T1, HPA (Homo sapiens, UniProt Q9Y251); assay: Homogeneous time-resolved fluorescence (HTRF) HPA inhibition in vitro; assay type: biochemical
T1 sequence (Q9Y251 158-543 limits assumed): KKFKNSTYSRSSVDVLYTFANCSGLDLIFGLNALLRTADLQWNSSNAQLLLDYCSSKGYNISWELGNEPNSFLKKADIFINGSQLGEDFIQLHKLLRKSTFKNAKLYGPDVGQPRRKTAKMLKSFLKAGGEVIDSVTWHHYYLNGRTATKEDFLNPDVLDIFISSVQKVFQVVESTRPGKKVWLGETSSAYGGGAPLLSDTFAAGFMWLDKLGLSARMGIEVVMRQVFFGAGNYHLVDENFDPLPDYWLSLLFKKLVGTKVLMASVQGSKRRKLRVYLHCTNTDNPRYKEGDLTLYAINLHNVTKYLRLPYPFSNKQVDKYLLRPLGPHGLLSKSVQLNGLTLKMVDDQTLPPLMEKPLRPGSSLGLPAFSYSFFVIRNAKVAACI
T1 sequence (Q9Y251 36-109 limits assumed): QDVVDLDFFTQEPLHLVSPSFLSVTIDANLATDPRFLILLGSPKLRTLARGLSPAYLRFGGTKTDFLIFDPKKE
Description: Active HPA was diluted with Buffer A to 120 ng mL^−1, biot‐HS‐K was diluted with Buffer B (pH 5.5) to 1.4 ng mL^−1, and SA‐d2 was diluted with Buffer C (pH 7.5) to 1 µg mL^−1, CV122 samples were diluted with Buffer A to different concentration gradients. Add 4 µL of sample solution and 3 µL of HPA solution or Buffer A to the micro‐96‐well plate. After incubating at 37 °C for 10 min, the enzyme reaction was started by adding 3 µL of biot‐HS‐K and incubating at 37 °C for 30 min. Then add 10 µL of SA‐d2 solution or Buffer C. After incubating for 15 min at room temperature, the HTRF signal was detected by a microplate reader, which was excited at 384 nm and emitted at 620 nm and 665 nm. The fluorescence intensity ratio of 665 nm/620 nm was used to calculate the average energy transfer rate (ΔF%) of each sample. The positive control system composed of biot‐HS‐K and SA‐d2 should produce the largest ΔF%, while the background fluorescence intensity of the negative control (biot‐HS‐K) should produce the smallest ΔF%.^[ [45] ^]

LPS-induced septic mice = assay: LPS-induced sepsis mouse model, survival; assay type: in vivo; details: LPS group 0%
Description: For LPS‐induced sepsis model experiments, 25 male C57BL/6J mice, 6–8 weeks old, weighing 20–25 g, were randomly divided into five groups (n = 5 in each group), and survival was examined. The abdominal cavity was injected with 40 mg kg^−1 LPS to induce sepsis. 30 min later, mice in group 1 were injected subcutaneously with 0.9% NaCl, mice in groups 2–4 were injected subcutaneously with CV122 (20 mg kg^−1), CV122 (30 mg kg^−1), and CV122 (40 mg kg^−1), respectively, and mice in group 5 were injected subcutaneously with Suramin (40 mg kg^−1). The status of the mice was observed and recorded every day.

HPA [2] = assay: HPA levels in LPS-stimulated RAW264.7 macrophages (immunofluorescence, western blotting); assay type: cell-based, mouse; details: CV122 50 µM 3 h, then LPS 5 µg mL−1 1 h
Description: Lungs were harvested from LPS‐induced and CLP‐induced sepsis model mice, and frozen sections were prepared. HUVECs and RAW264.7 macrophages were incubated with CV122 for 3 h, and TNF‐α (20 ng mL^−1) and LPS (5 µg mL^−1) were used to stimulate cells for 1 h. Lung tissue, HUVECs, and RAW264.7 macrophages were fixed with 4% paraformaldehyde for 10 min before permeabilization with 0.5% Triton X‐100 for 10 min. The membrane was sealed with 4% skimmed milk powder and incubated at room temperature for 50 min. Primary antibodies were rabbit anti‐heparanase polyclonal antibodies overnight at 4 °C. The diluent of the secondary antibody FITC‐WGA‐lectin was kept at room temperature and protected from light for 1 h. Nuclei were stained with DAPI. After 120 s, images were acquired with a confocal microscope (LSM 800, Zeiss, Germany).
CV122 (50 µM) was incubated with HUVECs and RAW264.7 cells for 3 h, and LPS (5 µg mL^−1) and TNF‐α (20 ng mL^−1) were incubated for 1 h. Total protein was extracted with RIPA tissue/cell lysate solution. Lung tissues were collected and homogenized in cold RIPA buffer to obtain proteins. The BCA method was used to quantify protein. After full denaturing, proteins were separated by 10% SDS‐PAGE and transferred to PVDF membrane. […] Blots were developed with a chemiluminescent HRP substrate, and the protein bands were detected with a chemiluminescence imager (MiniChemi610).

ICAM-1 and VCAM-1 = ICAM-1 and VCAM-1 on TNF-α-stimulated HUVECs by flow cytometry; assay type: cell-based, human; details: CV122 50 µM 3 h, TNF-α 20 ng mL−1 1 h
Description: Each group of mice was euthanized 24 h after LPS injection, spleens were harvested, red blood cells were lysed to detect splenocyte apoptosis, and the ratio of CD3^+CD4^+ T cells, CD3^+CD8^+ T cells, CD3^−CD19^+ B cells in spleen cells and lymph nodes quantified. Antibodies were: FITC‐Annexin V and PI; APC‐CD3, FITC‐CD4, PE‐CD8a, and PE‐CD19. Each group of mice was euthanized 12 h after LPS injection, Lung, kidney, and spleens were harvested, red blood cells were lysed to detect the ratio of macrophages in multiple organs, Antibodies were: FITC anti‐mouse F4/80; APC anti‐mouse CD86. Flow cytometry was used to quantify the adhesion molecules ICAM‐1 and VCAM‐1 on the surface of RAW264.7 cells and HUVECs. CV122 (50 µM) was incubated with the cells for 3 h, LPS (5 µg mL^−1) and TNF‐α (20 ng mL^−1) were used to stimulate the cells for 1 h, and the cells were collected. FITC anti‐mouse CD54 antibody and AF647 anti‐mouse CD106 antibody were incubated for 30 min at room temperature in the dark, PBS was added at 1000 rpm, and the cells were centrifuged for 7 min. A 200‐mesh copper mesh was used to filter the cells into a flow cytometer, and a flow cytometer (BD Biosciences) was used for detection.

CLP-induced septic mice = details: mouse, in vivo
HUVECs = assay: Cell survival assay (CCK-8) in HUVECs; assay type: cell-based, human; details: 50 to 200 µM
RAW264.7 macrophages = assay: Cell survival assay (CCK-8) in RAW264.7 macrophages; details: 50 to 200 µM

SMILES: COC1OC(COS(=O)(=O)O)C(OC2OC(C(=O)O)C(OC3OC(COS(=O)(=O)O)C(OC4OC(C(=O)O)C(OC5OC(COS(=O)(=O)O)C(O)C(O)C5NS(=O)(=O)O)C(OS(=O)(=O)O)C4O)C(OS(=O)(=O)O)C3NS(=O)(=O)O)C(O)C2OS(=O)(=O)O)C(O)C1NS(=O)(=O)O (centres unmarked) [CV122]
- IC50 rank in HPA inhibition screening (HPA [1]; CV114-CV123 compared with fondaparinux, ****p < 0.0001): lowest IC50 values
- IC50 (HPA [1]; HTRF, in vitro): 2970 nM
- survival rate (LPS-induced septic mice; 20 mg kg−1 s.c. 30 min after LPS 40 mg kg−1 i.p.): 60%
- survival rate (LPS-induced septic mice; 40 mg kg−1 s.c. 30 min after LPS 40 mg kg−1 i.p., 80 h or longer observation): 100%
- HPA levels in macrophages (HPA [2]): significantly inhibited HPA levels following LPS stimulation of macrophages
- ICAM-1 and VCAM-1 expression (ICAM-1 and VCAM-1): reversed after CV122 treatment
- HPA levels in the lungs (CLP-induced septic mice): significantly reduced the HPA levels in the lungs
- TNF-α, IL-6 and IL-1β in serum and lungs (CLP-induced septic mice): reduced the level
- body weight course (CLP-induced septic mice): gradually normalized the septic mice
- cell surface glycocalyx in lungs (WGA) (CLP-induced septic mice): protected cell surface glycocalyx
- lung pathological damage (HE) (CLP-induced septic mice): significantly rescued
- survival rate (CLP-induced septic mice; sc): 80%
- effect on survival of HUVECs (HUVECs): no significant inhibitory effect
- effect on survival of RAW264.7 macrophages (RAW264.7 macrophages): no significant inhibitory effect
